Data set [1] has as its target Alcohol dehydrogenase. Description: Inhibitor IC50 against NADPH dependent oxidoreductase, by his-mBFP fluorescence quantification of NADPH. The class given is biochemical. As to conditions: compounds added at 0.1 to 10 mM, sigma plot. As to the method: (§1) As an example of typical reactions, first, 0.02 units of glutathione reductase was reacted with 50 mM potassium phosphate buffer (pH 7.5) containing 5 mM of oxidized glutathione (GSSG) and 2 mM NADPH at room temperature, and then fluorescence was measured. In addition, 0.03 units of isocitrate dehydrogenase was reacted with 50 mM phosphate buffer (pH 7.2) containing 5 mM isocitrate, 2 mM MgCl2, and 2 mM NADP+ at room temperature, and then fluorescence was measured. In addition, 0.02 units of glucose-6-phosphate dehydrogenase was reacted with 50 mM Tris-HCL buffer (pH 7.5) containing 5 mM glucose-6-phosphate, 50 mM MgCl2, and 2 mM NADP+ at room temperature, and then fluorescence was measured. Further, 0.04 units of malate dehydrogenase was reacted with 50 mM Tris-HCL buffer (pH 7.5) containing 5 mM L-malate, 50 mM MgCl2, and 2 mM NADP+ at room temperature, and then fluorescence was measured. In addition, 0.02 units of NADPH oxidase was reacted with 50 mM phosphate buffered saline (PBS) containing 50 mM MgCl2 and 2 mM NADP+ at room temperature, and then fluorescence was measured. At the time of measuring the fluorescence, the reaction solution was diluted in consideration of mole ratio with his-mBFP.
(§2) In addition, the present invention may selectively select an activity inhibitor by restricting the library in the above-mentioned process with a clone having an oxidation/reduction enzyme family, adding a specific compound as well as a substrate in a process of measuring the activities of these enzymes, calculating a changed amount of NADP(H) to compare the calculated value with that of a control group (only substrate was add). These processes mean that after clones having related enzyme activities are cultured and a substrate and NADP(H) are added thereto, a changed amount of NADPH is quantified while inducing a reaction in an environment in which various synthetic materials are present.
(§3) In more detail, compounds having a possibility as the activity inhibitor were added to reaction solution of NADPH dependent oxidoreductase as in Example 7 at each concentration (0.1 to 10 mM). While the reaction was carried out, a produced amount of NADPH according to addition of each compound was quantified, and an inhibition degree of specific enzyme activity was confirmed by comparing the produced amount of NADPH in the case of adding the compound (test group) with that of in the case of not adding (control group).
(§4) After rates of NADPH production (reduction) reaction according to the concentration changes of primary selected compounds were measured, IC50 of each compound was calculated using a sigma plot program.

Data set [2] has as its target T1, Glucose-6-phosphate dehydrogenase (UniProt P11412).
T1 sequence (P11412 1-505): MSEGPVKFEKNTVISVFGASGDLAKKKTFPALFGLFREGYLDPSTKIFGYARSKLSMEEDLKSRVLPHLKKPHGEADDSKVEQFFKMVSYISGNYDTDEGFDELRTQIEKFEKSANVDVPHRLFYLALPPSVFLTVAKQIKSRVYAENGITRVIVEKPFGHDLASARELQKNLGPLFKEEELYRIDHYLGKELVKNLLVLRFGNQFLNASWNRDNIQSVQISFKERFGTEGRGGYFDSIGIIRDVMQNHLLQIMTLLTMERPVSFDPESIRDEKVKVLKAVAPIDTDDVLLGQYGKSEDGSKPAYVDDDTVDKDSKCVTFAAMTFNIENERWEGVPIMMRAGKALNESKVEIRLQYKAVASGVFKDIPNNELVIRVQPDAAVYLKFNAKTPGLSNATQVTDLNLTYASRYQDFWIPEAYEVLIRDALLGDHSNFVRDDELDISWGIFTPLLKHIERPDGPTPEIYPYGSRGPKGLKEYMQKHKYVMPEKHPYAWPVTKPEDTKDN
Described as above. The class given is biochemical. As to conditions: compounds added at 0.1 to 10 mM, sigma plot. As to the method:
as §1, §2, §3, §4

In data set [3] the target is Isocitrate dehydrogenase. The description is as above. In kind it is biochemical. As to conditions: compounds added at 0.1 to 10 mM, sigma plot. As for the experimental part: as §1, §2, §3, §4
Data set [4] in a line: Retention of fluorescence of his-mBFP according to storage method. The class given is physicochemical. As for the experimental part: In order to search a long-term storage method for his-mBFP requiring retention of the structure that is an important factor in fluorescence activity, suitable protein storage methods were observed. As storage conditions, degrees of reduction of fluorescence according to time were confirmed at different temperatures (4° C., −20° C., −80° C.) and different concentrations of additives for storage (5% trehalose, 25% glycerol, 50% glycerol, based on final concentration).
Among his-mBFP samples stored under each of the conditions, in the case of frozen samples, the sample was sufficiently hydrated in a cool buffer for 5 to 45 minutes in consideration of reconstruction of the structure, time required for restoration, or the like, and then was used in the experiment.

As usually defined, the IC50 is the concentration that inhibits the measured activity by half. A lower IC50 goes with inhibition by little substance.

Turning to `Cc1cn[nH]c1` [Formepizole], the IC50 in data set [1] came to 40.6 ± 5.8 µM. Take `OC[C@H]1O[C@@H](Oc2cc(O)cc(/C=C/c3ccc(O[C@@H]4O[C@H](CO)[C@@H](O)[C@H](O)[C@H]4O)cc3O)c2)[C@H](O)[C@@H](O)[C@@H]1O` [Mulberroside A]: inhibition in data set [1] was half-maximal at 48.9 ± 4.9 µM (IC50).

In data set [1], `COc1ccc(/C=C/c2cc(O)cc(O[C@@H]3O[C@H](CO)[C@@H](O)[C@H](O)[C@H]3O)c2)cc1O` [Rhaponticin] came in with an IC50 of 61.2 ± 4.1 µM.

With `O=C(O[C@@H]1Cc2c(O)cc(O)cc2O[C@@H]1c1ccc(O)c(O)c1)c1cc(O)c(O)c(O)c1` [epicatechin gallate], in data set [2], 235 ± 37.8 µM corresponded to half-maximal inhibition (IC50).

In turn, `O=C(O[C@@H]1Cc2c(O)cc(O)cc2O[C@H]1c1cc(O)c(O)c(O)c1)c1cc(O)c(O)c(O)c1` [gallocatechin gallate] gave a 50% inhibitory concentration (IC50) in data set [2] of 225 ± 28.6 µM. `CC(O)(C(=O)O)C(CC(=O)O)C(=O)O` (stereo not drawn) [methylisocitric acid] yielded a half-maximal inhibitory concentration (IC50) in data set [3] of 102 ± 7.4 µM. Molecule `O=C(O)C(=O)C(C(=O)O)C(O)C(=O)O` (stereo not drawn) [oxalomalic acid] returned an IC50 in data set [3] of 63.3 ± 5.2 µM.

B1: his-mBFP: metagenome-derived blue fluorescent protein with histidine tag, amino acid sequence SEQ ID NO: 3 (protein)
chain: MRGSHHHHHHGSACQNLNGKVAFVTGGSRGIGAAIVRRLAADGADIAFTYVSASSKNVATALVQELEAKGRRARAIQADSADPAQVRQAVEQAIVQLGPVDVLVNNAGIFLAGPLGEVTLDDYERTMNINVRAPFVAIQAAQASMPDGGRIINIGSCLAERAGRAGVTLYAASKSALLGMTRGLARDLGARGITANVVHPGPIDTDMNPADGERSGELVAVLSLPHYGEVRDIAGMVAFLAGPDGRYVTGASLAVDGGFAA
modifications: synthetic construct of His-tagged metagenome-derived blue fluorescent protein (mBFP)
On to B1, for which the fluorescence maintained is at least 90% in data set [4] (after 6 months, additive (25% to 50%) added); at least 80% in data set [4] (both cool and frozen conditions after 6 months); at least 80% in data set [4] (cold room at 4° C. for 2 months, solution state, no additive for storage); at least 95% in data set [4] (freezer at −20 to −80° C. for 2 months with an additive for storage). This molecule yielded a fluorescence intensity maintained in data set [4] (glycerol final concentration 50%, freezer at −80° C.) of at least 90%.
